Laboratory results as given in patent EP4353084A1, “BIOPESTICIDE COMPOSITION WITH SYNERGISTIC EFFECT AND METHOD FOR COMBATING AND CONTROLLING PESTS” (Kimitec Biogroup S.L, priority 2022, dated 2024).
Where “and” joins values, the source holds several entries; their conditions need not be identical. Equal entries are not always repeated. Marks after values point to notes of the source that are not given here.

What was measured:
Format in all cases: in vivo
Tetranychus urticae [1] = assay: Contact mortality (Leaf Disc Method); conditions: for Mortality (%M): adults, 24 h, Abbott corrected
Method: This bioassay is to evaluate the physical effect of different doses on the mortality of Tetranychus urticae (red spider mite) adults in a short/medium-term (0-24 hours) by topical application.
Tests were conducted in plastic net petri dishes (5 cm diameter) (Figure 2). (a) The bottom of the petri dish was covered with a thin (0.4 mm) layer of agar 12% (w/v). After 2 minutes, to cool agar, (b) bean (Phaseolus vulgaris) leaf discs (2 cm^2) were placed on the fresh agar surface (upper side up) and allowed to dry for 30 minutes. This provides a support and disc hydration along the experiment (24 h). Fifteen (c) Tetranychus urticae adults were placed on the upper surface of a bean leaf disc with a fine entomological brush. The mites were allowed to acclimate for 30 minutes. A total of 10 petri dishes for each treatment (individual active ingredients, blend of active ingredients, positive and negative controls) were used in each experiment and temporarily replicated 3 times along the week.
Each treatment (different doses of individual active ingredients, blend of active ingredients, and controls) was sprayed (50 µl) two times on the settled spider mites, covering all the disc surface in each petri dishes using a micro-atomizer. Closed and labeled bottles were incubated in a compact-type growth chamber at 25 (±2) °C, 60% relative humidity (RH), and a photoperiod of 16 h:8 h light: dark. Numbers of live and dead mite adults were counted at 24 h post-treatment. Mite adults were considered dead if no movement was apparent after probing with the tip of a fine brush under stereoscopic magnifying glass. Mortality percentage was calculated in treatment and control groups. If the mortality in negative control is above 20%, the test was discarded. When control mortality was greater than 5% but less than 20%, the observed mortality (%M) was corrected using Abbott's formula (Abbott, 1925): % Corrected M = (X−Y)/(100−Y)x [formula]
Where: X= Mortality (%) in the treatment; Y= Mortality (%) in the control
Means of %M were compared using a one-way analysis of variance (ANOVA, p<0.05) and LSD-test as a post hoc test to verify significant differences between single treatments using Statgraphics Centurion XVII software. When nonnormality in the data was detected, an additional Kruskal-Wallis test was conducted, and Box-and-Whisker Plot (Median Notch) was presented. Each active ingredient and the blend were tested in a dose-response experiment (3-5 serial dilutions) to calculate their relative potency (EC50 and/or EC90) from a linear regression analysis (%M on Log-dose). In addition, death mite adults were carefully observed under stereoscopic magnifying glass to differentiate the mechanisms of action involved in contact mortality such as: Blocking tracheal insect spiracles (suffocation) and effect on insect cuticle and/or membranes (osmotic shock). Table 4. Contact mortality of test items against Tetranychus urticae

Tetranychus urticae [2] = assay: Knock-down bioassays; conditions: 1% w/v; mortality assessed at 1, 2, 4, 6, 8, 16 and 24 hours after spraying; Figures 7 and 8
Method: Furthermore, the composition of the present invention was tested to evaluate its knock-down effect in the contact mortality assays of individual active ingredients and blend. Mortality, as in bioassay of contact mortality, was assessed at 1, 2, 4, 6, 8, 16 and 24 hours after spraying the blend of Eucalyptus oil and geraniol. In the case of individual active ingredients (Eucalyptus oil and geraniol), we used the dose that give major activity in contact (topical) assays 1% w/v Table 4. Blend was prepared at 0.06:0.06 %w/v (Eucalyptus oil: geraniol) for the bioassays with the biopesticide composition.
The same behavior was stated in the case of biopesticide composition (Figure 9). Abrupt curves showing high mortalities within oner hour are indicative of neurotoxic effects. However, smoothed curves could be used as indicative of non-toxic mode of action.

Tetranychus urticae [3] = assay: In planta settling inhibition (Whole Plant Direct Method); conditions: 24 hours
Method: The objective of this bioassay is to evaluate the effect of different doses of individual active ingredients and biopesticide composition on the settling behavior of Tetranychus urticae. It's based on the preference of mite adults for treated and non-treated bean (Phaseolus vulgaris) plants located in the same petri dishes (in vitro assays) or entomological cages (in planta assays): The experiments were conducted in bugdorm®-type net cages (60x60x60 cm, 140 microns mesh) (Figure 4). By putting inside this, 14 cm diameter pots with two similar bean plants in two-leaf stage in each pot (Figure 5). One of the plants was sprayed with the composition of the present invention and the other with the control and allowed to dry for 30 minutes. Adult mites (up to 100) were released at the base of stems between the two plants (treated and untreated), so that they had to choose between two alternatives or remain walking and/or resting on the cage walk. A total of 5 cages for each treatment (four plant each) (Figure 6) and control were used in each experiment and replicated 3 times in different days. Closed and labeled cages were incubated in a "walk-in" type growth chamber at 25 (±2) °C, 60% relative humidity (RH), and a photoperiod of 16 h:8 h light: dark. After 24 hours the number of adults settled in treated and non-treated plants and the number of laid eggs were recorded on both side of blade in each leaf. Number of mites and eggs were counted under a stereomicroscope. Settling inhibition index (%SI) was calculated according to the following formula: %SI = [1−((T)/(C))] × 100 [formula] T= Settling of treated plants; C= Settling of control plants. Oviposition inhibition index (%10) was calculated according to the following formula: %IO = [1−((T)/(C))] × 100 [formula] T= laid eggs on treated plants; C= laid eggs on control plants. Means of %SI and %10 were analyzed for significance by the non-parametric Wilcoxon signed-rank test (p<0.05). An asterisk (*) means statistically significancy. Table 6. In planta antifeedant effects against Tetranychus urticae

Tetranychus urticae [4] = assay: In vitro settling inhibition (leaf disc painting method); conditions: 24 h
Method: The objective of this bioassay is to evaluate the effect of different doses of individual active ingredients and biopesticide composition on the settling behavior of Tetranychus urticae. It's based on the preference of mite adults for treated and non-treated bean (Phaseolus vulgaris) plants located in the same petri dishes (in vitro assays) or entomological cages (in planta assays): Tests were conducted in plastic net petri dishes (5cm diameter) (Figure 3). The bottom of the petri dish was covered with a thin (0.4 mm) layer of agar 12% (w/v) (a). After 2 minutes to cool agar, bean (Phaseolus vulgaris) leaf discs (2 cm^2) were placed on the fresh agar surface (upper side up) and allowed to dry for 30 minutes. It provides a support and disc hydration along the experiment (24 h). Half of the discs were treated (T) with 20 µl of the individually active ingredients and the blend and the other half with water containing 2% TWEEN® 80 that was used as control (C). Fifteen Tetranychus urticae adults were placed on the middle of treated and untreated leaf discs and allowed to feed (24 h) in a compact-type growth chamber at 25 (±2) °C, 60% relative humidity, and a photoperiod of 16 h:8 h light: dark. A total of 10 petri dishes for each treatment were used in each experiment and temporarily replicated 3 times along the week. Table 5. In vitro antifeedant effects against Tetranychus urticae Settling inhibition index (%SI) was calculated according to the following formula: %SI = [1−((T)/(C))] × 100 [formula] T= Settling of treated plants; C= Settling of control plants.

For `Cc1ccc(C(C)C)cc1O` [Carvacrol], the “Mortality (%M)” value (Tetranychus urticae [1]; Dose 0.01 % (w/v)) was 38.9 ± 5.1%, the “Mortality (%M)” value (Tetranychus urticae [1]; Dose 0.05 % (w/v)) was 47.1 ± 7.2% and the “Mortality (%M)” value (Tetranychus urticae [1]; Dose 0.10 % (w/v)) was 66.8 ± 5.3%. For the same compound, the “Mortality (%M)” value (Tetranychus urticae [1]; Dose 1.0 % (w/v)) was 100.0 ± 0.0%, the “concentration given 80% of contact mortality” value (Tetranychus urticae [1]; EC80) was 0.55% and the “EC80 (%, w/v)” value (Tetranychus urticae [1]; Table 12, contact mortality, limits in brackets, text calls it EC80) was “EC50 (%, w/v) = 0.55 (0.42, 0.8)”.

In the case of `CC(C)=CCC/C(C)=C/CO` [geraniol], the “Knock-down effect (knockdown curve)” value (Tetranychus urticae [2]) is reported as “slow and gradual increase in the mortality along the time”, the “Oviposition inhibition (%IO)” value (Tetranychus urticae [3]; Dose 0.10 % (w/v)) is reported as 44.3 ± 3.7* % and the “Settling inhibition (%SI)” value (Tetranychus urticae [3]; Dose 0.10 % (w/v)) is reported as 57.7 ± 5.3%. The “Oviposition inhibition (%IO)” value (Tetranychus urticae [3]; Dose 0.50 % (w/v)) was 72.1 ± 3.1* %, the “Settling inhibition (%SI)” value (Tetranychus urticae [3]; Dose 0.50 % (w/v)) was 73.2 ± 2.6% and the “Oviposition inhibition (%IO)” value (Tetranychus urticae [3]; Dose 1.0 % (w/v)) was 81.1 ± 2.1* %. The “Settling inhibition (%SI)” value (Tetranychus urticae [3]; Dose 1.0 % (w/v)) was 76.1 ± 2.7%, the “Mortality (%M)” value (Tetranychus urticae [1]; Dose 0.10 % (w/v)) was 18,1% and 18.1 ± 2.4% and 18.1 ± 2.4 ^a % and the “Mortality (%M)” value (Tetranychus urticae [1]; Dose 0.50 % (w/v)) was 28.2% and 28.2 ± 3.2% and 28.2 ± 3.2 ^b %. The “Mortality (%M)” value (Tetranychus urticae [1]; Dose 1.0 % (w/v)) was 43.9 ± 2.5% and 43.9 ± 2.5 ^c %, the “EC50 (%, w/v)” value (Tetranychus urticae [1]; contact mortality, linear regression %M on Log-dose, limits in brackets) was “EC50 (%, w/v) = 2.44 (1.24, 4.75)” and the “concentration given 50% of contact mortality” value (Tetranychus urticae [1]; in vivo) was 2.44%. For the same compound, the “Settling inhibition (%SI)” value (Tetranychus urticae [4]; Dose 0.02 % (w/v)) was 31.1 ± 4.4 %, the “Settling inhibition (%SI)” value (Tetranychus urticae [4]; Dose 0.05 % (w/v)) was 47.5 ± 4.6 % and the “Settling inhibition (%SI)” value (Tetranychus urticae [4]; Dose 0.10 % (w/v)) was 70.6%. The “Settling inhibition (%SI)” value (Tetranychus urticae [4]; Dose 0.10 % (w/v), listed as Geraniol) was 70.6 ± 3.0 %, the “Settling inhibition (%SI)” value (Tetranychus urticae [4]; Dose 0.50 % (w/v)) was 75.3 ± 3.4 % and the “Settling inhibition (%SI)” value (Tetranychus urticae [4]; Dose 1.0 % (w/v)) was 82.9 ± 2.5 %.
